Molecules are shown by their SMILES. Activity calls are given as the source filed them. The calls are words filed in the database; no cut-off is given here.

Assay [1] concerns the target T1, Macrophage scavenger receptor types I and II (Mus musculus) (UniProt P30204).
T1 sequence (whole entry): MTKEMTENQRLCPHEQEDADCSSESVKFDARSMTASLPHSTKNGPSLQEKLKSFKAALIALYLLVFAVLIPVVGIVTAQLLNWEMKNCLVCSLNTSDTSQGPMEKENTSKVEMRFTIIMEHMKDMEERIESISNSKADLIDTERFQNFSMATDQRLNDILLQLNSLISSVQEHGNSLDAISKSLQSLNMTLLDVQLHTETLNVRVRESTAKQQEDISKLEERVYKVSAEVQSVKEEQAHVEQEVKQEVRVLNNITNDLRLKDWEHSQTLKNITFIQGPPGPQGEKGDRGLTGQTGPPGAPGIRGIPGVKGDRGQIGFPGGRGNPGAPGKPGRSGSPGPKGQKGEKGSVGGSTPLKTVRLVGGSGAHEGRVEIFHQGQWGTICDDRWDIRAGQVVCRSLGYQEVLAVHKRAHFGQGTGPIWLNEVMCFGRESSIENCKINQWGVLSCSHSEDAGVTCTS
The assay can be described thus: Antagonist activity at SRA in RM1-OVA tumor bearing wild type C57BL/6 mouse derived CD11bpositiveLy6ChighLy6Gnegative myeloid-derived suppressive cells co-cultured with splenocytes assessed as reduction in protein-mediated inhibition of anti CD3/CD28 antibody-induced T-cell activation by measuring IL-2 secretion pretreated for 2 hrs followed by splenocytes addition measured after 56 hrs by ELISA. (In general: In an ELISA, binding on a coated surface is turned into a signal by an enzyme label.)

The target in assay [2] is T1, Macrophage scavenger receptor types I and II (Mus musculus). The assay can be described thus: Antagonist activity at mouse recombinant SRA extracellular domain expressed in baculovirus infected Sf21 insect cells assessed as inhibition of protein-induced reduction of IL2 gene promoter activation in anti CD3/CD28 antibody activated wild type C57BL/6 mouse B3Z T-cells at 50 uM after 5 hrs by beta-galactosidase reporter gene assay.

Assay [3] shares this target. The assay can be described thus: Antagonist activity at SRA in RM1-OVA tumor bearing wild type C57BL/6 mouse derived CD11bpositiveLy6ChighLy6Gnegative myeloid-derived suppressive cells co-cultured with splenocytes assessed as reduction in protein-mediated inhibition of anti CD3/CD28 antibody-induced T-cell proliferation at 10 to 20 uM preincubated for 2 hrs followed by splenocytes addition measured after 72 hrs by [3H]-thymidine incorporation assay. A general note: Uptake of a labelled nucleoside into DNA is a usual measure of proliferation.

Assay [4] shares this target. The assay can be described thus: Antagonist activity at SRA in RM1-OVA tumor bearing wild type C57BL/6 mouse derived CD11bpositiveLy6ChighLy6Gnegative myeloid-derived suppressive cells co-cultured with splenocytes assessed as reduction in protein-mediated inhibition of anti CD3/CD28 antibody-induced T-cell activation by measuring IL-2 secretion at 10 to 20 uM pretreated for 2 hrs followed by splenocytes addition measured after 56 hrs by ELISA.

Take `O=C1c2cccc(O)c2C(=O)c2c(O)cccc21`: the inhibition result in assay [1] is “Dose-dependent effect”. The inhibition entry in assay [2] and in assay [3] was “Active” throughout.
For `O=C(O)c1ccc2c(c1)C(=O)c1cccc(O)c1C2=O`, the inhibition entry in assay [2], in assay [3] and in assay [4] was “Active” throughout.
Consider `O=C(O)c1cc(O)c2c(c1)C(=O)c1cccc(O)c1C2=O`, for which, in assay [3], the inhibition result is “Active”.

The values are drawn from ChEMBL document CHEMBL3875186, “Design, synthesis, and characterization of rhein analogs as novel inhibitors of scavenger receptor A” (Bioorg Med Chem Lett, 2017).
